Tests used:
healthy poly-drug users [1] = test: Physiological effects (non-invasive SBP, DBP, HR, cutaneous temperature) after oral self-administration; type: in vivo, humans; design: key to HR Dunnet’s Test: “a” (times 0–1 h); “b” (times 0–2 h); “c” (times 0–4 h); not significant (NS)
Description: (§1) The study was designed as a non-controlled prospective observational study in a naturalistic setting with methylone and MDMA self-administration. The methodology, including procedures and evaluations, coincides with previous observational–naturalistic studies aimed at evaluating the acute effects of other NPS [38, 39, 40]. Six subjects (5 M, 1 F) self-administered MDMA and 8 subjects (5 M, 3 F) self-administered methylone. Each subject participated only in one session. Participants brought their own substance obtained from an unknown source, which was tested by Energy Control, a harm reduction organization that provides a drug checking service to drug users. Pills containing methylone and MDMA were analyzed by gas chromatography associated with mass spectrometry (GC/MS), a technique that traces the presence of the most frequent drugs of abuse, such as MDMA, cocaine, heroin, amphetamine and methamphetamine, LSD, and multiple NPS (methylone, mephedrone, and other synthetic cathinones, synthetic cannabinoids, tryptamines, among others).
(§2) In both sessions, participants selected the dose of methylone or MDMA according to their previous drug use experience. Doses of methylone could be selected from a range (75–300 mg) that was previously defined according to the consulted literature. The WHO Expert Committee on Drug Dependence (Thirty-Sixth Meeting, Geneva, Switzerland, 16–20 June 2014) established that 60 mg of methylone was the threshold dose and doses over 250 mg were often related to very strong activity. Some users have reported uses of 300 mg of methylone as a common dose [www.erowid.org] (accessed on 15 June 2021). The mean of the selected doses of MDMA was 87.50 mg (3 subjects ingested 75 mg (2 males and 1 female), 3 males 100 mg). In the other study session, methylone doses ranged from 100 to 300 mg, with a mean of 187.50 mg. Based on their dose selection, 1 male ingested 100 mg, 2 subjects 150 mg (1 male and 1 female), 4 subjects 200 mg (2 males and 2 females), and 1 male 300 mg.
(§3) The sessions were conducted in a naturalistic setting. Participants were allowed to talk, read, listen to music, or play games, except during the evaluation times. However, they were asked to refrain from talking about the effects of the substance. All the subjects were evaluated simultaneously at baseline, 1, 2, and 4 h after administration of methylone or MDMA, which occurred approximately at 16:00 h. At each time point, evaluations were followed in a specific order: physiological effects, oral fluid collection, and subjective effects scales and questionnaires.
Non-invasive systolic blood pressure (SBP), diastolic blood pressure (DBP), and heart rate (HR) were measured with subjects in the sitting position, using an automatic Omron monitor at baseline, 1, 2, and 4 h (h) after self-administration. Cutaneous temperature was determined at the same time points.
Vital signs (SBP, DBP, and HR) and subjective effects (VAS, ARCI, and VESSPA-SSE) were baseline-adjusted. Maximum effects and the time in which maximum effects appeared were determined, and the area under the curve (AUC0–4h) was calculated with the trapezoidal rule.
Thirdly, to find possible significant changes from baseline, a Dunnett multiple comparison test was conducted to compare each time point with baseline in both drug conditions (0–1 h, 0–2 h, 0–4 h).

healthy poly-drug users [2] = test: Subjective effects, visual analogue scales (VAS); type: in vivo, humans; design: key to VAS stimulated Dunnet’s Test / VAS change in lights Dunnet’s Test / VAS different body feeling Dunnet’s Test / VAS different surrounding Dunnet’s Test / VAS dizziness Dunnet’s Test / VAS headache Dunnet’s Test / VAS face flushing Dunnet’s Test: “a” (times 0–1 h); “b” (times 0–2 h); “c” (times 0–4 h); not significant (NS)
Description: as §1, §2, §3
Subjective effects were evaluated at baseline, 1, 2, and 4 h after self-administration using visual analogue scales (VAS), the Addiction Research Center Inventory (ARCI), and the Evaluation of Subjective Effects of Substances with Abuse Potential questionnaire (VESSPA-SSE).
Visual analogue scales (100 mm, from “not at all” to “extremely”) contained 30 items that subjects were asked to rate, such as: intensity, stimulated, high, good effects, liking, happiness, drunkenness, changes in colors, changes in shapes, changes in lights, hallucinations (seeing lights or spots), hallucinations (seeing of animals), changes in hearing, hallucinations (hearing sounds or voices), different or changed body feeling, unreal body feeling, changes in distances, different surroundings, unreal surroundings, confusion, fear, depression or sadness, drowsiness, dizziness, bad effects, headache, sickness, vertigo, shortness of breath, and face flushing.
Vital signs (SBP, DBP, and HR) and subjective effects (VAS, ARCI, and VESSPA-SSE) were baseline-adjusted. Maximum effects and the time in which maximum effects appeared were determined, and the area under the curve (AUC0–4h) was calculated with the trapezoidal rule. […]

5-HT2C receptors = test system: 5-HT2C receptors; design: method as in PMID 25237120, PMID 23583454; details: cited from earlier work
CYP2D6 = details: limited contribution of CYP1A2, CYP2B6, CYP2C19; cited from earlier work
[3] = oral, methylone 100–300 mg n=8, MDMA 75–100 mg n=6, baseline-adjusted, mean ± SD
[4] = time points significantly different from baseline

Compound: CNC(C)C(=O)c1ccc2c(c1)OCO2 (centres unmarked) [Methylone, 3,4-methylenedioxymethcathinone]
- DBP AUC0–4h (healthy poly-drug users [1]; [3]): 55.19 ± 31.02
- DBP Emax (healthy poly-drug users [1]; [3]): 19.63 ± 13.96 mmHg
- HR AUC0–4h (healthy poly-drug users [1]; [3]): 52.06 ± 39.16
- HR Emax (healthy poly-drug users [1]; [3]): 20.50 ± 19.78 bpm
- SBP AUC0–4h (healthy poly-drug users [1]; [3]): 80.81 ± 42.89
- SBP Emax (healthy poly-drug users [1]; [3]): 31.25 ± 14.77 mmHg
- Variation in cutaneous temperature (healthy poly-drug users [1]; oral, methylone 100–300 mg, MDMA 75–100 mg, versus baseline, 0–4 h): Neither of the substances caused significant variations
- DBP Dunnet’s Test (healthy poly-drug users [1]; [4]): a, b, c
- HR Dunnet’s Test (healthy poly-drug users [1]; [4]): a
- SBP Dunnet’s Test (healthy poly-drug users [1]; [4]): a, b, c
- Time at which subjective effects in general reached maximum values (healthy poly-drug users [2]; oral, VAS, ARCI, VESSPA-SSE overall): 2 h
- VAS change in lights AUC0–4h (healthy poly-drug users [2]; [3]): 10.88 ± 11.85
- VAS change in lights Emax (healthy poly-drug users [2]; [3]): 4.88 ± 4.82 mm
- VAS content AUC0–4h (healthy poly-drug users [2]; [3]): 80.06 ± 82.59
- VAS content Emax (healthy poly-drug users [2]; [3]): 35.25 ± 30.38 mm
- VAS different body feeling AUC0–4h (healthy poly-drug users [2]; [3]): 44.13 ± 43.86
- VAS different body feeling Emax (healthy poly-drug users [2]; [3]): 22.25 ± 20.60 mm
- VAS different surrounding AUC0–4h (healthy poly-drug users [2]; [3]): 5.69 ± 10.39
- VAS different surrounding Emax (healthy poly-drug users [2]; [3]): 4.38 ± 7.50 mm
- VAS dizziness AUC0–4h (healthy poly-drug users [2]; [3]): 2.63 ± 3.02
- VAS dizziness Emax (healthy poly-drug users [2]; [3]): 2.13 ± 2.53 mm
- VAS face flushing AUC0–4h (healthy poly-drug users [2]; [3]): 64.50 ± 56.75
- VAS face flushing Emax (healthy poly-drug users [2]; [3]): 31.25 ± 21.91 mm
- VAS good effects AUC0–4h (healthy poly-drug users [2]; [3]): 74.06 ± 67.08
- VAS good effects Emax (healthy poly-drug users [2]; [3]): 35.63 ± 30.63 mm
- VAS headache AUC0–4h (healthy poly-drug users [2]; [3]): 23.63 ± 28.94
- VAS headache Emax (healthy poly-drug users [2]; [3]): 20.25 ± 28.93 mm
- VAS high AUC0–4h (healthy poly-drug users [2]; [3]): 55.06 ± 53.54
- VAS high Emax (healthy poly-drug users [2]; [3]): 24.0 ± 21.28 mm
- VAS intensity AUC0–4h (healthy poly-drug users [2]; [3]): 45.88 ± 43.66
- VAS intensity Emax (healthy poly-drug users [2]; [3]): 20.0 ± 16.48 mm
- VAS stimulated AUC0–4h (healthy poly-drug users [2]; [3]): 50.56 ± 47.38
- VAS stimulated Emax (healthy poly-drug users [2]; [3]): 22.50 ± 18.81 mm
- VAS change in lights Tmax (healthy poly-drug users [2]; oral, methylone 100–300 mg n=8, MDMA 75–100 mg n=6, median (min–max)): 1.0 (0.0–2.0) h
- VAS change in lights Dunnet’s Test (healthy poly-drug users [2]; [4]): a, b
- VAS content Dunnet’s Test (healthy poly-drug users [2]; [4]): a, b
- VAS different body feeling Dunnet’s Test (healthy poly-drug users [2]; [4]): NS
- VAS different surrounding Dunnet’s Test (healthy poly-drug users [2]; [4]): NS
- VAS dizziness Dunnet’s Test (healthy poly-drug users [2]; [4]): a
- VAS face flushing Dunnet’s Test (healthy poly-drug users [2]; [4]): b
- VAS good effects Dunnet’s Test (healthy poly-drug users [2]; [4]): a, b
- VAS headache Dunnet’s Test (healthy poly-drug users [2]; [4]): c
- VAS high Dunnet’s Test (healthy poly-drug users [2]; [4]): a, b
- VAS intensity Dunnet’s Test (healthy poly-drug users [2]; [4]): a, b
- VAS stimulated Dunnet’s Test (healthy poly-drug users [2]; [4]): b
- Activity at 5-HT2C receptors (5-HT2C receptors): weak antagonist effects
- Enzymes metabolizing the substance in the liver (CYP2D6): principally by the enzymatic activity of CYP2D6
